Literature values, collected in paper PMC7904743, “WIDOCK: a reactive docking protocol for virtual screening of covalent inhibitors” (Journal of Computer-Aided Molecular Design, 2021).
Like-named read-outs stand apart in the source and are kept apart here.

What was measured:
[1] = thiol reactivity, cited from earlier work
OTUB2 = conditions: experimental actives if % labeling higher than 50%, cited from earlier work
NUDT7 = conditions: protein labeling at 200 μM; experimental actives if % labeling higher than 50%; cited from earlier work
[2] = natural log of average rate constant k
[3] = natural logarithm of average rate constant
[4] = natural log of average kinetic rate constant
[5] = natural log of average rate constant

Compound | ln(avg k) [1, 2] | ln(avg k) [1, 3] | OTUB2 % labeling (OTUB2) | NUDT7 % labeling (NUDT7) | ln(avg k) [1, 4] | ln(avg k) [1, 5] | OTUB2 % labeling (OTUB2; OTUB2 protein labeling)
O=C(CCl)Nc1cccc2ncccc12 [PCM-0102097, O=C(CCl)Nc1cccc2ncccc12] | -16.130 | -16.130 | 42% | 0% | – | – | –
N#Cc1c(NC(=O)CCl)sc2c1CCC2 [PCM-0102452, N#Cc1c(NC(=O)CCl)sc2c1CCC2] | -16.077 | -16.077 | 7% | 0% | – | – | –
Cc1cc(CNC(=O)CCl)cc(C)c1O [PCM-0102431, Cc1cc(CNC(=O)CCl)cc(C)c1O] | -16.592 | -16.592 | 64% | 0% | – | – | –
COC(=O)C1CCN(C(=O)CCl)CC1 [PCM-0102978, COC(=O)C1CCN(C(=O)CCl)CC1] | – | – | – | 0% | -16.559 | -16.559 | 0%
O=C(CCl)N(c1ccc(F)cc1)C1C=CS(=O)(=O)C1 (centres unmarked) [PCM-0102868, O=C(CCl)N(c1ccc(F)cc1)C1C=CS(=O)(=O)C1] | – | – | – | 34% | -15.576 | -15.576 | 0%
COC(=O)c1ccccc1N(C)C(=O)CCl [PCM-0102589, COC(=O)c1ccccc1N(C)C(=O)CCl] | -16.323 | -16.323 | 0% | 15% | – | – | –
Cc1nc(C2(NC(=O)CCl)CCCCCC2)no1 [PCM-0102944, Cc1nc(C2(NC(=O)CCl)CCCCCC2)no1] | – | – | – | 0% | -17.037 | -17.037 | 0%
Cc1ccc(CN(C)C(=O)CCl)cc1 [PCM-0103017, Cc1ccc(CN(C)C(=O)CCl)cc1] | – | – | – | 9% | -16.138 | -16.138 | 0%
COc1ccc(Cl)cc1NC(=O)CCl [PCM-0102370, COc1ccc(Cl)cc1NC(=O)CCl] | -15.854 | -15.854 | 18% | 23% | – | – | –
O=C(CCl)N1CCN(c2ccccc2[N+](=O)[O-])CC1 [PCM-0103016, O=C(CCl)N1CCN(c2ccccc2[N+](=O)[O-])CC1] | – | – | – | 27% | -15.523 | -15.523 | 9%
O=C(CCl)Nc1cc(F)ccc1C(=O)O [PCM-0102247, O=C(CCl)Nc1cc(F)ccc1C(=O)O] | -16.882 | -16.882 | 0% | 0% | – | – | –
CC1CCN(C(=O)CCl)CC1 [PCM-0102945, CC1CCN(C(=O)CCl)CC1] | – | – | – | 0% | -16.826 | -16.826 | 0%
CC1CN(C(=O)CCl)CCO1 (centres unmarked) [PCM-0102830, CC1CN(C(=O)CCl)CCO1] | – | – | – | 0% | -16.218 | -16.218 | 0%
COc1cc2c(cc1OC)CN(C(=O)CCl)CC2 [PCM-0102317, COc1cc2c(cc1OC)CN(C(=O)CCl)CC2] | -14.822 | -14.822 | 14% | 10% | – | – | –
CC(=O)c1cccc(N2Cc3ccccc3C2=NC(=O)CCl)c1 [PCM-0102283, CC(=O)c1cccc(N2Cc3ccccc3C2=NC(=O)CCl)c1] | -16.303 | -16.303 | 0% | 0% | – | – | –
CC1CCN(C(=O)CCl)C2CCCCC12 (centres unmarked) [PCM-0102831, CC1CCN(C(=O)CCl)C2CCCCC12] | – | – | – | 37% | -15.612 | -15.612 | 0%
CC1CCC2(CC1)NC(=O)N(NC(=O)CCl)C2=O (centres unmarked) [PCM-0102666, CC1CCC2(CC1)NC(=O)N(NC(=O)CCl)C2=O] | -17.364 | -17.364 | 0% | 0% | – | – | –
